Test results from PMC12606622, “Assessment of the Binding Patterns for Endocrine Disrupting Chemicals in Complex with Estrogen and Androgen Receptors by Leveraging the Asclepios Enalos KNIME Nodes” (Journal of Chemical Information and Modeling, 2025).
pEC50, pIC50: −log10 of the molar value. Read-outs that look alike come from different tables or passages of the source.

Experiments:
human AR = target: T1, human AR (Homo sapiens, UniProt P10275); format: cell-based; conditions: for % residual agonist activity: at 30 μM, 3 nM 11-ketoDHT only = 100%
T1 sequence (P10275 640-920): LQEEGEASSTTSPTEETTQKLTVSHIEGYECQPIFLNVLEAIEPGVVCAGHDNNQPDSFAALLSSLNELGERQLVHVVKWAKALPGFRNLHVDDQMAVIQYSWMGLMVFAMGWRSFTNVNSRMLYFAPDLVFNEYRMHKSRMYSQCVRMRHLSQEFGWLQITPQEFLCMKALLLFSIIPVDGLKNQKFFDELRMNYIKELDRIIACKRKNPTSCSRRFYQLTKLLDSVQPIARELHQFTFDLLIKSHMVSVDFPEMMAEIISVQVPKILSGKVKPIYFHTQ
Method: (§1) HEK293 cells (ACC305, DSMZ, Braunschweig, Germany) were cultivated at 37 °C in 5% CO2 in DMEM supplemented with 10% FBS, 2 mM L-glutamine, 1 mM sodium pyruvate, 100 U/mL penicillin, and 100 μg/mL streptomycin. For exposure studies, cells were cultivated in phenol red-free DMEM, supplemented with 1% dextran-coated charcoal-treated FBS.
In the case of the N–C-terminal interaction assay of AR, the ESR1 effector plasmid was replaced by 0.02 μg each of pVP16-AR (1–503) and pM-AR (640–920). Aliquot (0.6 μL) of 1 mg/mL PEI MAX 40K solution was diluted to 25 μL with 150 mM NaCl. The diluted PEI MAX 40K was added to the diluted DNA mixture, and the mixture was incubated at room temperature for 15 min. In parallel, HEK 293 cells were adjusted to 40,000 cells in 200 μL of culture medium per well. The transfection mixture (50 μL) was added to the cell suspension, gently mixed, and pipetted into a well of a 96-well plate. The next day, the transfected cells were treated with chemicals for 24 h before cell lysis with 50 μL per well of passive lysis buffer (Promega). Firefly and Renilla luciferase activities were measured as described previously. Results were normalized for transfection efficiency by dividing firefly luciferase activity by Renilla luciferase activity, measured from the same well. Assays were performed in technical triplicate in each independent experiment. […] Concentration response curves were fitted with nonlinear regression using the formula with a variable slope (four parameters) or the formula with a standard slope (three parameters) of GraphPad Prism 10.4.1 (GraphPad Software, Boston, MA, USA), as indicated in the respective figure legends.
AR N–C-terminal interaction mammalian two-hybrid assays were run in transiently transfected HEK293 cells, which were treated afterward for 24 h with the indicated concentrations of chemicals. […] Data are presented as a mean ± SD fold change (n = 4 independent experiments) with respect to the normalized reporter gene activity of cells treated with 0.1% DMSO only. […] Data are presented as mean ± SD (n = 3 independent experiments) with respect to the normalized reporter gene activity of cells treated with 3 nM 11-ketoDHT only, which was designated as 100%. Curves were fitted with nonlinear regression using the formula with a standard slope (three parameters) of GraphPad Prism 10.4.1.

human ERα (ESR1) = target: T2, human ERα (ESR1) (Homo sapiens, UniProt P03372); test: ERα mammalian one-hybrid reporter gene assay in transiently transfected HEK293 cells; format: cell-based; conditions: for E max [FC]: fold change vs 0.1% DMSO, at conc. BPA 10, BPF 10, BPS 30, ZEA 0.1 μM
T2 sequence (P03372 251-595): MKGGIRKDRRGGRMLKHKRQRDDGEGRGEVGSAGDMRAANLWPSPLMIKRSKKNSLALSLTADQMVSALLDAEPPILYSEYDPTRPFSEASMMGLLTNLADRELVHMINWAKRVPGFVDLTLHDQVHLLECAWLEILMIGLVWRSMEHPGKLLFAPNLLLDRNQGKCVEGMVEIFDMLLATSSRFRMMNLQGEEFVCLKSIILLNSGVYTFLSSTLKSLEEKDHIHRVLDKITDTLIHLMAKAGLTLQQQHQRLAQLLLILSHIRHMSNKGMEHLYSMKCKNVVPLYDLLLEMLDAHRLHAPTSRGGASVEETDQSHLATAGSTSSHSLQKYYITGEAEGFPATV
Method: as §1
Per well of a 96-well plate, a plasmid DNA mixture consisting of 0.26 μg of pGL4-G5, 0.04 μg of pM-ESR1 (251–495), and 0.005 μg of pGL4.75 [hRluc/CMV] was diluted with 150 mM NaCl to a final volume of 25 μL. […] Aliquot (0.6 μL) of 1 mg/mL PEI MAX 40K solution was diluted to 25 μL with 150 mM NaCl. The diluted PEI MAX 40K was added to the diluted DNA mixture, and the mixture was incubated at room temperature for 15 min. In parallel, HEK 293 cells were adjusted to 40,000 cells in 200 μL of culture medium per well. The transfection mixture (50 μL) was added to the cell suspension, gently mixed, and pipetted into a well of a 96-well plate. The next day, the transfected cells were treated with chemicals for 24 h before cell lysis with 50 μL per well of passive lysis buffer (Promega). Firefly and Renilla luciferase activities were measured as described previously. Results were normalized for transfection efficiency by dividing firefly luciferase activity by Renilla luciferase activity, measured from the same well. Assays were performed in technical triplicate in each independent experiment. […] Concentration response curves were fitted with nonlinear regression using the formula with a variable slope (four parameters) or the formula with a standard slope (three parameters) of GraphPad Prism 10.4.1 (GraphPad Software, Boston, MA, USA), as indicated in the respective figure legends.
ERα mammalian one-hybrid assays were executed in transiently transfected HEK293 cells, which were treated afterward for 24 h with the indicated concentrations of chemicals. Data are presented as a mean ± SD fold change (n ≥ 3 independent experiments) with respect to the normalized reporter gene activity of cells treated with 0.1% DMSO only.

[1] = HEK293, 24 h treatment, four-parameter fit, n ≥ 3, read-out: EC50 mean (activating ERα)

Compound | % residual agonist activity (human AR) [%] | E max [FC] (human ERα (ESR1)) | pEC50 (human ERα (ESR1); [1]) | other results
C[C@]12CCC(=O)C[C@@H]1CC[C@H]1[C@@H]3CC[C@H](O)[C@@]3(C)CC(=O)[C@@H]12 [11-ketoDHT, 11-Ketodihydrotestosterone, reference compound] | – | – | – | pEC50 (human AR; agonist mode, HEK293, 24 h, n = 4, 95% CI 2.3–4.7 nM, read-out: EC50 (induction of AR N–C interaction)): 8.48
CC(C)(c1ccc(O)cc1)c1ccc(O)cc1 [Bisphenol A] | 3.1 | 19.6 | – | pIC50 (human AR; read-out: IC50 mean (inhibiting AR)): 6.01
Oc1ccc(Cc2ccc(O)cc2)cc1 [Bisphenol F] | – | 56.1 | 5.68 | –
O=S(=O)(c1ccc(O)cc1)c1ccc(O)cc1 [Bisphenol S] | – | 48.5 | 5.28 | –
C[C@H]1CCCC(=O)CCC/C=C/c2cc(O)cc(O)c2C(=O)O1 [Zearalenone] | 1.5 | 89.9 | – | pIC50 (human AR): 5.43; pEC50 (human ERα (ESR1)): 8.31; potency fold higher than BPA (ERα activation) (human ERα (ESR1); ratio of EC50 values, vs BPA): 120 fold; potency fold higher than BPF (ERα activation) (human ERα (ESR1); ratio of EC50 values, vs BPF): 430 fold; potency fold higher than BPS (ERα activation) (human ERα (ESR1); ratio of EC50 values, vs BPS): 1060 fold
